# Columns and labels:
# [1] = species: Homo sapiens; assay: Selectivity index, difference in pIC50 for human recombinant MAOB and pIC50 for human recombinant MAOA
# [2] = target: T1, Amine oxidase [flavin-containing] B (Homo sapiens, UniProt P27338); assay: Inhibition of human recombinant MAOB
# T1 sequence (P27338 whole entry): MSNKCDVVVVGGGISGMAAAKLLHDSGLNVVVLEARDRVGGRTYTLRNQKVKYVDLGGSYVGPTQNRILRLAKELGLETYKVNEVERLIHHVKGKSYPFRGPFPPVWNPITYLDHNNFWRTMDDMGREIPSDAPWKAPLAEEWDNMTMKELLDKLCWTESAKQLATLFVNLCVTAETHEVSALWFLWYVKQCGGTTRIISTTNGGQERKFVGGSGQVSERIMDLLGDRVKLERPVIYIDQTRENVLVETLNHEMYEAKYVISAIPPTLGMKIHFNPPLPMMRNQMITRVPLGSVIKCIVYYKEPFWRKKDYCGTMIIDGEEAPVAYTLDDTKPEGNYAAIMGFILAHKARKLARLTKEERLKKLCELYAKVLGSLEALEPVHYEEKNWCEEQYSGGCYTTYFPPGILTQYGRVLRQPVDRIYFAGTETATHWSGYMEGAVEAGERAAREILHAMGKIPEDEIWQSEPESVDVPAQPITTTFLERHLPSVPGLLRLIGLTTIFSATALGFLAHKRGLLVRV
# [3] = target: T2, Amine oxidase [flavin-containing] A (Homo sapiens, UniProt P21397); assay: Inhibition of human recombinant MAOA
# T2 sequence (P21397 whole entry): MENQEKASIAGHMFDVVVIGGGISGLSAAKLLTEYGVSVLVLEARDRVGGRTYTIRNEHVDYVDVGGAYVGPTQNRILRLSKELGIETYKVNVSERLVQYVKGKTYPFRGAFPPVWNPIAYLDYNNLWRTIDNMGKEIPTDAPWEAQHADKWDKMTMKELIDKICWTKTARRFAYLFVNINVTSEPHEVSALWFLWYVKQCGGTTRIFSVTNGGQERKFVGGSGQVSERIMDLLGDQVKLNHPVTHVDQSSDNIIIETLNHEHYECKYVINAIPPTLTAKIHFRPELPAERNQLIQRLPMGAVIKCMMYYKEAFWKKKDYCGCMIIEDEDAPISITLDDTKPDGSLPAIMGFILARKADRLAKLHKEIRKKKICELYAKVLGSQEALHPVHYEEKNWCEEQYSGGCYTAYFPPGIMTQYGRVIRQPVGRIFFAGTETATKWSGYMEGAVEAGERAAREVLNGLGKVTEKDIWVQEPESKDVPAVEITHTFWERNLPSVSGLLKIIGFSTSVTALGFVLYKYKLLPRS
pSI [1],IC50 [2],IC50 [3],Structure (SMILES)
> 0.41,38.9 µM,> 100 µM,CCOC(=O)c1cc(=O)c2cc(Cl)ccc2o1
> 0.42,38 µM,> 100 µM,O=c1c(CO)coc2ccccc12
0,> 100 µM,> 100 µM,CCOC(=O)c1cc(=O)c2ccccc2o1
0,> 100 µM,> 100 µM,CN(C(=O)c1cc(=O)c2ccccc2o1)c1ccccc1
> 1.72,1.91 µM,> 100 µM,CCOC(=O)c1coc2ccccc2c1=O
< -1,> 1000 µM,> 100 µM,O=C(O)c1coc2ccc(Cl)cc2c1=O
> 0.45,35.5 µM,> 100 µM,CCCOC(=O)c1cc(=O)c2ccccc2o1
0,> 100 µM,> 100 µM,O=c1cc(CO)oc2ccccc12
-1.15,–,–,O=C(Nc1ccc(O)c(O)c1)c1cc(=O)c2ccccc2o1
< -1,> 1000 µM,> 100 µM,O=C(O)c1cc(=O)c2cc(Cl)ccc2o1
> 1.25,5.62 µM,> 100 µM,CCCOC(=O)c1coc2ccccc2c1=O

# — ChEMBL document CHEMBL2311455, “Combining QSAR classification models for predictive modeling of human monoamine oxidase inhibitors” (Eur J Med Chem, 2013)
